# Reference: patent US8778966B2, “Quinolinone derivatives as PARP and tank inhibitors” (Janssen Pharmaceutica, NV, priority 2007, dated 2014)
# Tested on: tubulin
# Test: Tubulin polymerization assay
# Format: biochemical
# Set-up: key: a compound showing 0 to 50% inhibition at 20 μM is reported as score 1; Score 2 compounds are defined as compound showing more than 50% inhibition at 20 μM and less than 50% inhibition at 5 μM; a compound showing more than 50% inhibition at 5 μM is reported as score 3
# Conditions: tested at 20 μM and 5 μM
# Protocol: The tubulin polymerization assay is an adaptation of an assay originally described by Bonne, D. et al. (J. Biol. Chem., 1985, 260:2819-25). The assay kit was purchased from Cytoskeleton, Inc. (catalogue number BK011) and the assay was performed as described by the supplier with the following modifications. The assay was run in a 384-well black Proxiplate (Perkin Elmer) and volumes were adapted accordingly. The reactions were carried out in a final volume of 10 μl. Compounds were added to 25 μl of the reaction mix in 96-well PP plates (Corning) on ice and 10 μl of this mixture was dispensed into duplicates of the 384-well Proxiplates pre-warmed to 37° C. in a Fluoroskan Ascent plate reader (Thermo Scientific). Fluorescence measurements were taken every minute for one hour. The maximum slope of each well was determined (linear regression through 4 consecutive points) and polymerization was calculated as a percentage of polymerization observed in the absence of compound. Compounds were first measured at a concentration of 20 μM and then at 5 μM for those showing more than 50% inhibition at 20 μM as compared to the polymerization observed in the absence of compound. Results are reported in Table F-2 as scores defined as: a compound showing 0 to 50% inhibition at 20 μM is reported as score 1; a compound showing more than 50% inhibition at 5 μM is reported as score 3.
row,Compound,tubulin polymerisation score
1,"CCc1cc2ccc([C@@](C)(C#N)CCOc3ccccc3)cc2[nH]c1=O (single isomer, unassigned) [Compound 150]",2
2,CCc1cc2ccc(C(C)(C#N)Cc3ccccc3F)cc2[nH]c1=O (stereo not drawn) [Compound 106],1 (a compound showing 0 to 50% inhibition at 20 μM is reported as score 1)
3,CCc1cc2ccc(C(C)(C#N)Cc3cccc(C(F)(F)F)c3)cc2[nH]c1=O (stereo not drawn) [Compound 109],2
4,CCc1cc2ccc(C(C)(C#N)Cc3cccc(F)c3)cc2[nH]c1=O (stereo not drawn) [Compound 112],1 (a compound showing 0 to 50% inhibition at 20 μM is reported as score 1)
5,CCc1cc2ccc(C(C)(C#N)Cc3cccc(OC)c3)cc2[nH]c1=O (stereo not drawn) [Compound 113],2
6,CCc1cc2ccc(C(C)(C#N)Cc3ccc(F)cc3)cc2[nH]c1=O (stereo not drawn) [Compound 115],2
7,CCc1cc2ccc(C(C)(C#N)Cc3ccc(C)cc3)cc2[nH]c1=O (stereo not drawn) [Compound 117],2
8,CCc1cc2ccc(C(C)(C#N)Cc3cc(F)cc(Cl)c3)cc2[nH]c1=O (stereo not drawn) [Compound 126],2
9,CCc1cc2ccc(C(C)(C#N)Cc3cc(F)cc(F)c3)cc2[nH]c1=O (stereo not drawn) [Compound 128],1 (a compound showing 0 to 50% inhibition at 20 μM is reported as score 1)
10,CCc1cc2ccc(C(C)(C#N)Cc3cccc(Cl)c3F)cc2[nH]c1=O (stereo not drawn) [Compound 130],2
11,CCc1cc2ccc(C(C)(C#N)Cc3ccc(F)cc3F)cc2[nH]c1=O (stereo not drawn) [Compound 137],1 (a compound showing 0 to 50% inhibition at 20 μM is reported as score 1)
12,CCc1cc2ccc(C(C)(C#N)Cc3c(F)cccc3F)cc2[nH]c1=O (stereo not drawn) [Compound 138],1 (a compound showing 0 to 50% inhibition at 20 μM is reported as score 1)
13,CCc1cc2ccc(C(C)(C#N)CCOc3cccc(C)c3)cc2[nH]c1=O (stereo not drawn) [Compound 143],2
14,CCc1cc2ccc(C(C)(C#N)CCOc3ccccc3C)cc2[nH]c1=O (stereo not drawn) [Compound 148],1 (a compound showing 0 to 50% inhibition at 20 μM is reported as score 1)
15,CCc1cc2ccc(C(C)(C#N)CCOc3ccc(C)cc3)cc2[nH]c1=O (stereo not drawn) [Compound 149],2
16,CCc1cc2ccc(C(C)(C#N)CCOc3cccc(Cl)c3)cc2[nH]c1=O (stereo not drawn) [Compound 151],2
17,CCc1cc2ccc(C(C)(C#N)CCOc3ccccc3Cl)cc2[nH]c1=O (stereo not drawn) [Compound 152],2
18,CCc1cc2ccc(C(C)(C#N)CCOc3ccccc3Br)cc2[nH]c1=O (stereo not drawn) [Compound 153],2
19,CCc1cc2ccc(C(C)(C#N)CCOc3ccc(C#N)cc3)cc2[nH]c1=O (stereo not drawn) [Compound 161],2
20,CCc1cc2ccc(C(C)(C#N)CCOc3cccc4c3OCCO4)cc2[nH]c1=O (stereo not drawn) [Compound 163],2

# Tested on: not given
# Test: not given
# Conditions: not given
row,Compound,melting point
1,"CCc1cc2ccc(C(C)(C#N)CC3COc4ccccc4O3)cc2[nH]c1=O (single isomer, unassigned) [Compound 48]",241 °C
2,CCc1cc2ccc(C(C)(C#N)Cc3cccc(C(=O)O)c3)cc2[nH]c1=O (stereo not drawn) [Compound 10],> 260 °C
3,CCc1cc2ccc(C(C)(C#N)Cc3cccc(-c4nc(C)no4)c3)cc2[nH]c1=O (stereo not drawn) [Compound 11],152 °C
4,CCc1cc2ccc(C(C)(C#N)Cc3cccc(C(=O)OC)c3)cc2[nH]c1=O (stereo not drawn) [Compound 12],140 °C
5,CCc1cc2ccc(C(C)(C#N)Cc3cccc(C(=O)NC)c3)cc2[nH]c1=O (stereo not drawn) [Compound 13],182 °C
6,CCc1cc2ccc(C(C)(C#N)Cc3cccc(NS(C)(=O)=O)c3)cc2[nH]c1=O (stereo not drawn) [Compound 14],80 °C
7,CCc1cc2ccc(C(C)(C#N)Cc3cccc(N)c3)cc2[nH]c1=O (stereo not drawn) [Compound 15],187 °C
8,CCc1cc2ccc(C(C)(C#N)Cc3cccc(NC(=O)N4CCOCC4)c3)cc2[nH]c1=O (stereo not drawn) [Compound 16],121 °C
9,CCc1cc2ccc([C@](C)(C#N)C[C@@H]3CCc4cc(C)ccc4O3)cc2[nH]c1=O [Compound 251],192 °C
10,CCc1cc2ccc([C@@](C)(C#N)C[C@@H]3CCc4cc(C)ccc4O3)cc2[nH]c1=O [Compound 252],184 °C
